Experimental data taken from ChEMBL document CHEMBL1122062, “Inhibitors of adenosine deaminase. Studies in combining high-affinity enzyme-binding structural units. erythro-1,6-Dihydro-6-(hydroxymethyl)-9-(2-hydroxy-3-nonyl)purine and erythro-9-(2-hydroxy-3-nonyl)purine” (J Med Chem, 1982).

How the values were obtained:
[1] = Upper limit of relative enzyme affinity of compound to the substrate.
Adenosine deaminase [2] = molecular target: T1, Adenosine deaminase (Bos taurus, UniProt P56658); assay: Ability to inhibit calf intestinal adenosine deaminase (ADA).
T1 sequence (P56658 whole entry): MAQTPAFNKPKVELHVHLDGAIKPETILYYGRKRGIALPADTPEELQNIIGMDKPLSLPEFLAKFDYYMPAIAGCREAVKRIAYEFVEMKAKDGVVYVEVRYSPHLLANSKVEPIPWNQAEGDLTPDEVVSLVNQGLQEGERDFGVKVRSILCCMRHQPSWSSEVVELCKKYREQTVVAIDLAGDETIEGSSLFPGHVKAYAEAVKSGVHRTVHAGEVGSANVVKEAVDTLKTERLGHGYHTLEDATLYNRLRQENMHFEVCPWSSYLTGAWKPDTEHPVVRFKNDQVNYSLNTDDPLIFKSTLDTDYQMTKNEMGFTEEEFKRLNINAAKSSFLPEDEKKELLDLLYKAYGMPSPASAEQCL

[3] = molecular target: T2, Adenosine deaminase (Bos taurus) (UniProt P56658)
T2 sequence (whole entry): T1 sequence (P56658 whole entry)

Adenosine deaminase [4] = molecular target: T1, Adenosine deaminase; assay: Ability to inhibit calf intestinal adenosine deaminase (ADA); No data

SMILES	Km/Ki [1]	Ki (Adenosine deaminase [2])	REA [3]	Ki (Adenosine deaminase [4])
CCCCCCC(C(C)O)n1cnc2cncnc21 (stereo unspecified)	36	680 nM	–	–
OC[C@H]1O[C@@H](n2cnc3c2N=CNC[C@H]3O)C[C@@H]1O	–	–	2.8e+06	–
CCCCCC[C@@H]([C@@H](C)O)n1cnc2c(N)ncnc21 [EHNA]	–	–	–	0.0013 µM
CCCCCCC(C(C)O)n1cnc2c1N=CNC2CO (stereo unspecified)	2.1	–	–	12 µM
